For nine compounds, GI50 results are on record in ChEMBL document CHEMBL1146932, “A series of 23,24-dihydrodiscodermolide analogues with simplified lactone regions” (2006).

What all share (format): functional
Holding throughout (settings): Homo sapiens

Test [1] relates to NCI/ADR-RES. In words: Antiproliferative activity against NCI/ADR cell line.
The subject of test [2] is A549. The test can be described thus: Antiproliferative activity against A549t12 cell line.
Test [3] deals with MCF7. The test can be described thus: Antiproliferative activity against MCF7 cell line.
In test [4] the test system is A549. In words: Antiproliferative activity against A549 cell line.
The subject of test [5] is CCRF-CEM. In words: Antiproliferative activity against resistant CCRF-CEM/PTX cell line.
Test [6] relates to CCRF-CEM. In words: Antiproliferative activity against CCRF-CEM cell line.
Test [7] deals with CCRF-CEM. In words: Antiproliferative activity against resistant CCRF-CEM/VBL cell line.
The subject of test [8] is CCRF-CEM. In words: Antiproliferative activity against resistant CCRF-CEM/VP16 cell line.

By GI50 is commonly meant the concentration at which growth is held to half of that of the control. The low end stands for more potent growth inhibition, the high end for less potent growth inhibition.

On to `CC/C=C\[C@H](C)[C@H](OC(N)=O)[C@@H](C)[C@H](O)[C@@H](C)C/C(C)=C\[C@H](C)[C@@H](O)[C@@H](C)/C=C\[C@@H](O)C[C@@H]1OC(=O)NC[C@H]1C`, for which the GI50 was found to be 10000 nM in test [1], 1000 nM in test [2], 110 nM in test [3] and 520 nM in test [4].
The corresponding values for `CC/C=C\[C@H](C)[C@H](OC(N)=O)[C@@H](C)[C@H](O)[C@@H](C)C/C(C)=C\[C@H](C)[C@@H](O)[C@@H](C)/C=C\[C@H](O)C[C@@H]1CCC(=O)O1` are 10000 nM, 10000 nM, 2000 nM and 4000 nM.
Turning to `CC/C=C\[C@H](C)[C@H](OC(N)=O)[C@@H](C)[C@H](O)[C@@H](C)C/C(C)=C\[C@H](C)[C@@H](O)[C@@H](C)/C=C\[C@@H](O)C[C@@H]1OC(=O)[C@H](C)[C@@H](O)[C@H]1C`, the GI50 in test [1] came out at 190 nM; in test [3], 6.2 nM; in test [4], 7 nM.
`C=C/C=C\[C@H](C)[C@H](OC(N)=O)[C@@H](C)[C@H](O)[C@@H](C)C/C(C)=C\[C@H](C)[C@@H](O)[C@@H](C)/C=C\[C@@H](O)C[C@@H]1OC(=O)[C@H](C)[C@@H](O)[C@H]1C` [DISERMOLIDE]: the GI50 in test [1] came out at 240 nM; in test [5], 92 nM; in test [6], 16 nM; in test [2], 30 nM; in test [7], 158 nM; in test [8] it was 52 nM. The GI50 in test [3] was 28 nM; in test [4], 22 nM.
For the compound `CC/C=C\[C@H](C)[C@H](OC(N)=O)[C@@H](C)[C@H](O)[C@@H](C)C/C(C)=C\[C@H](C)[C@@H](O)[C@@H](C)/C=C\[C@@H](O)C[C@H](O)[C@H](C)C[C@H](C)C(=O)OC`, the GI50 in test [1] came out at 10000 nM; in test [2] it was 4000 nM; in test [3] it was 1000 nM; in test [4], 4000 nM.
As to `CC/C=C\[C@H](C)[C@H](OC(N)=O)[C@@H](C)[C@H](O)[C@@H](C)C/C(C)=C\[C@H](C)[C@@H](O)[C@@H](C)/C=C\[C@@H](O)C[C@@H]1OC(=O)[C@H](C)[C@@H](OC)[C@H]1C`, the concentration for 50% growth inhibition (GI50) in test [1] worked out at 250 nM; in test [5], 79 nM; in test [6], 4.4 nM; in test [2], 12 nM; in test [7], 416 nM; in test [8] it was 8.4 nM. The results for the 50% growth inhibitory concentration (GI50) in test [3] and in test [4] were 3.8 nM and 6.5 nM, respectively.
Take `CC/C=C\[C@H](C)[C@H](OC(N)=O)[C@@H](C)[C@H](O)[C@@H](C)C/C(C)=C\[C@H](C)[C@@H](O)[C@@H](C)/C=C\[C@@H](O)C[C@@H]1OC(=O)[C@H](C)C[C@H]1C`: the concentration for 50% growth inhibition (GI50) in test [1] stood at 140 nM; in test [5], 65 nM; in test [6], 8.6 nM; in test [2] it was 50 nM; in test [7], 209 nM; in test [8] it was 12 nM. The figures for the GI50 in test [3] and in test [4] were 5.8 nM and 11 nM, respectively.
For `CC/C=C\[C@H](C)[C@H](OC(N)=O)[C@@H](C)[C@H](O)[C@@H](C)C/C(C)=C\[C@H](C)[C@@H](O)[C@@H](C)/C=C\[C@@H](O)C[C@H]1CCC(=O)O1`, the 50% growth inhibitory concentration (GI50) was 730 nM in test [1]; 285 nM in test [5]; 6.5 nM in test [6]; 63 nM in test [2]; 3810 nM in test [7]; 7.1 nM in test [8]. The concentration for 50% growth inhibition (GI50) is 6.4 nM in test [3] and 46 nM in test [4].
As for `CC/C=C\[C@H](C)[C@H](OC(N)=O)[C@@H](C)[C@H](O)[C@@H](C)C/C(C)=C\[C@H](C)[C@@H](O)[C@@H](C)/C=C\[C@@H](O)C[C@H](O)[C@H](C)CO`, the 50% growth inhibitory concentration (GI50) was determined as 10000 nM in test [1], 5000 nM in test [2], 1000 nM in test [3] and 3000 nM in test [4].
